According to publication PMC7707621, “Oxidized Juncuenin B Analogues with Increased Antiproliferative Activity on Human Adherent Cell Lines: Semisynthesis and Biological Evaluation” (Journal of Natural Products, 2020):
Read-outs that look alike come from different tables or passages of the source.

Experiments:
HeLa cells [1] = experiment: MTT antiproliferative assay on HeLa; format: cell-based, human; conditions: Homo sapiens, HeLa, read-out: Growth inhibition (% ± SEM), HeLa
Method: (§1) The antiproliferative assays of the products were carried out by a standard MTT method on human breast (MCF-7, T47D), cervical (HeLa, SiHa, C33A), and ovarian (A2780) cancer cells, and NIH/3T3 mouse embryonic fibroblast cell lines. In the first step, the diastereomeric and racemic mixtures 1–11 and the starting compound, juncuenin B, were tested to obtain information about their antiproliferative activity.
(§2) The antiproliferative activity and tumor selectivity of the compounds were measured by standard MTT assays. Tumor cell lines MCF-7, T47D, HeLa, A2780, and noncancerous NIH/3T3 were provided by European Collection of Authenticated Cell Cultures (ECACC, Salisbury, UK); cell lines SiHa and C33A by LGC Standards GmbH (Wesel, Germany). All chemicals and materials used for the antiproliferative assays were purchased from Sigma Aldrich Ltd. (Budapest, Hungary).
(§3) Growth-inhibition properties of racemates and pure enantiomer compounds were determined by standard MTT assays on six human malignant gynecological cell lines (MCF-7, T47D, HeLa, SiHa, C33A, A2780). To investigate tumor selectivity, the MTT assay was repeated on mouse embryonic fibroblast cells (NIH/3T3) under the same conditions. All cell lines were maintained in minimal essential medium (MEM) supplemented with 10% fetal bovine serum, 1% nonessential amino acids, and 1% penicillin–streptomycin–amphotericin B mixture, and were stored in humidified air containing 5% CO2 at 37 °C. All cell types were seeded into 96–well plates at a density of 5000 with the exception of C33a, which was seeded at a density of 10 000 and treated by increasing concentrations (0.1–30 μM) of the compounds for 72 h under cell culturing conditions. After the incubation, 5 mg/mL MTT [3-(4,5-dimethylthiazol-2-yl)-2,5-diphenyltetrazolium bromide] solution was added to samples for 4 h and precipitated blue formazan crystals were dissolved in DMSO. Absorbance values of the samples were measured at 545 nm using a microplate reader (Stat Fax-2100, Awareness Technologies Inc., Palm City, FL, USA) and untreated cells were used as control. Normalized sigmoidal dose–response curves were fitted to the determined data and the IC50 values were calculated by GraphPad Prism 5.01 (GraphPad Software, San Diego, CA, USA). Cisplatin (Ebewe Pharma GmbH, Unterach, Austria) was used as a reference agent in the same concentration range.

MCF-7 cells = experiment: MTT antiproliferative assay on MCF-7; format: cell-based, human
Method: as §1, §2, §3

T47D cells [2] = conditions: read-out: IC50 value from literature, T47D; cited from earlier work
C33A cells = experiment: MTT antiproliferative assay on C33A; format: cell-based, human; conditions: for IC50: MTT, 0.1–30 μM, 72 h, mean ± SEM, read-out: calculated IC50 values, C33A
Method: as §1, §2, §3

SiHa cells = experiment: MTT antiproliferative assay on SiHa; format: cell-based, human; conditions: for IC50: MTT, 0.1–30 μM, 72 h, mean ± SEM, read-out: calculated IC50 values, SiHa
Method: as §1, §2, §3

A2780 cells [3] = experiment: MTT antiproliferative assay on A2780; format: cell-based, human; conditions: Homo sapiens, read-out: Growth inhibition (% ± SEM), A2780
Method: as §1, §2, §3

T47D cells [4] = experiment: MTT antiproliferative assay on T47D; format: cell-based, human; conditions: Homo sapiens, T47D, read-out: Growth inhibition (% ± SEM), T47d
Method: as §1, §2, §3

[5] = tested on: NIH/3T3 mouse embryonic fibroblast cells; experiment: MTT assay for tumor selectivity on NIH/3T3; format: cell-based; conditions: MTT, 0.1–30 μM, 72 h, mean ± SEM; read-out: calculated IC50 values, NIH/3T3
Method: as §1, §2, §3

A2780 cells [6] = conditions: read-out: IC50 value from literature, A2780; cited from earlier work
HeLa cells [7] = conditions: cited from earlier work

SMILES: C=Cc1c(C)c(O)cc2c1CCc1c-2ccc(O)c1C [juncuenin B, 1,7-dimethyl-8-vinyl-9,10-dihydrophenanthrene-2,6-diol]
- inhibition at 10 µM (HeLa cells [1]; 10 μM): 88.8 ± 1.15%
- inhibition at 30 µM (HeLa cells [1]; 30 μM): 93.58 ± 0.41%
- inhibition at 10 µM (MCF-7 cells; Homo sapiens, MCF7, 10 μM, read-out: Growth inhibition (% ± SEM), MCF-7): 22.5 ± 2.02%
- inhibition at 30 µM (MCF-7 cells; Homo sapiens, MCF7, 30 μM, read-out: Growth inhibition (% ± SEM), MCF-7): 64.9 ± 2.1%
- fold stronger activity on MCF-7 than on T47D cells (MCF-7 cells; MCF-7 versus T47D): approximately 2.5 fold
- IC50 (T47D cells [2]): > 30 µM
- inhibition at 10 µM (C33A cells; Homo sapiens, C-33-A, 10 μM, read-out: Growth inhibition (% ± SEM), C33a): 27.5 ± 2.45%
- inhibition at 30 µM (C33A cells; Homo sapiens, C-33-A, 30 μM, read-out: Growth inhibition (% ± SEM), C33a): 79.33 ± 0.7%
- IC50 (C33A cells; Homo sapiens, C-33-A): 12.7 ± 1.7 µM
- inhibition at 10 µM (SiHa cells; Homo sapiens, SiHa, 10 μM, read-out: Growth inhibition (% ± SEM), SiHa): 22.7 ± 2.89%
- inhibition at 30 µM (SiHa cells; Homo sapiens, SiHa, 30 μM, read-out: Growth inhibition (% ± SEM), SiHa): 33.1 ± 1.76%
- IC50 (SiHa cells; Homo sapiens, SiHa): > 30 µM
- inhibition at 10 µM (A2780 cells [3]; A2780, 10 μM): 61.2 ± 1.46%
- inhibition at 30 µM (A2780 cells [3]; A2780, 30 μM): 85.91 ± 0.62%
- inhibition at 10 µM (T47D cells [4]; 10 μM): < 10%
- inhibition at 30 µM (T47D cells [4]; 30 μM): 54.2 ± 2.66%

SMILES: N.N.[Cl][Pt][Cl] [cisplatin, reference compound]
- IC50 [5]: 2.7 µM
- IC50 (A2780 cells [6]): 1.3 µM
- IC50 (MCF-7 cells; MTT, 0.1–30 μM, 72 h, mean ± SEM, read-out: calculated IC50 values, MCF-7): 5.8 µM
- IC50 (T47D cells [2]): 9.8 µM
- IC50 (C33A cells): 1.8 µM
- IC50 (SiHa cells): 7.8 µM

SMILES: C=Cc1c(C)c(O)cc2c1-c1ccc(O)c(C)c1CC2 [Juncusol]
- cytotoxicity on HeLa cells (in words) (HeLa cells [7]): cytotoxic
